pKi: −log10 of the molar value.
Biological target: T1, 5-hydroxytryptamine receptor 3A (Mus musculus, UniProt P23979)
T1 sequence (P23979 whole entry): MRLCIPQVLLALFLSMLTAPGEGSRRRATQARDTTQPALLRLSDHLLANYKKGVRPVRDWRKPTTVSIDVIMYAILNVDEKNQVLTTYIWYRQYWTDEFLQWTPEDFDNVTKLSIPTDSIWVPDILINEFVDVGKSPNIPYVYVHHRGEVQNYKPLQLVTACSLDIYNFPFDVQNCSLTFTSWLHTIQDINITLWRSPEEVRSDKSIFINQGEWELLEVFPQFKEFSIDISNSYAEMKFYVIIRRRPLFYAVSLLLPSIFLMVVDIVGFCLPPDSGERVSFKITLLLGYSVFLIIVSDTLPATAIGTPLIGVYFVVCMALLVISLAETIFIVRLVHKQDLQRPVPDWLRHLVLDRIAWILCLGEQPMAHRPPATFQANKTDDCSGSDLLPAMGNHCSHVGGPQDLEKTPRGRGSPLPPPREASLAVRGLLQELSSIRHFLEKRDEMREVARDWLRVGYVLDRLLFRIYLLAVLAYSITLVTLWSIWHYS
Experiment: Displacement of [3H]LY278584 from mouse 5-HT3A receptor

pKi: 5.70
Structure (SMILES): NC1=Nc2cc(Cl)ccc2CN1

Source: ChEMBL document CHEMBL2434905, “2-Amino-6-chloro-3,4-dihydroquinazoline: A novel 5-HT3 receptor antagonist with antidepressant character” (Bioorg Med Chem Lett, 2013)
